In patent US20100048950A1 (BOEHRINGER INGELHEIM INTERNATIONAL GMBH, priority 2007, published 2010) one finds IC50 data, which are given here for 28 compounds.

The term IC50 denotes the point on the concentration scale where inhibition reaches its midpoint.

The target in this assay is T1, human glucocorticoid receptor (GR) complex (Homo sapiens, UniProt P04150).
T1 construct: made in house; host or cells: insect expression system (baculovirus lysate)
T1 sequence (P04150 1-777): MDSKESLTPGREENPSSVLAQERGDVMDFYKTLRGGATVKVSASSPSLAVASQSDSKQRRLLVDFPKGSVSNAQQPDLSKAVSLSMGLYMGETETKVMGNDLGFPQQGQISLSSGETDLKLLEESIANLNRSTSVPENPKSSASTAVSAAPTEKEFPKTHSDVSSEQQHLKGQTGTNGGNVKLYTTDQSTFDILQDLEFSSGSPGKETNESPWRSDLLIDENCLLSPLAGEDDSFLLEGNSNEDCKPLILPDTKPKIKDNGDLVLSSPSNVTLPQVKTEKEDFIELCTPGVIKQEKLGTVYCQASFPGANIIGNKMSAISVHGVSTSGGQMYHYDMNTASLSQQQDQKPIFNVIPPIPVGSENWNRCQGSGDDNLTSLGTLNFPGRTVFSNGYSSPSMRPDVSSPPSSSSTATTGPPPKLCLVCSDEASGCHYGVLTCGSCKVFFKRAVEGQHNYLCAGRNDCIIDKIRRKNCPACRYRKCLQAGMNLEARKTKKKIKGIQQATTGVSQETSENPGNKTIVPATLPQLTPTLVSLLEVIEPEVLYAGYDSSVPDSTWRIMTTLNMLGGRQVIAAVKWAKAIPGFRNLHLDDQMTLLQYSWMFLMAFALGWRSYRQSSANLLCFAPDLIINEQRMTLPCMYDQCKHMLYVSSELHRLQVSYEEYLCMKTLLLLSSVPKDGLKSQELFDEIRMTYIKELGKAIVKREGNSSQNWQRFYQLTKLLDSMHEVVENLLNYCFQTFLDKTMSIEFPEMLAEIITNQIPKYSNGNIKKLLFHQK
The experiment in a line: Glucocorticoid receptor competitive binding assay (fluorescence polarization). Particulars: competition with TAMRA-labeled dexamethasone, read-out: potent activity (IC50) in the GR binding assay. The method, then:
Compounds of the invention were evaluated for binding to the steroid receptor by a fluorescence polarization competitive binding assay. Detailed descriptions for preparation of recombinant glucocorticoid receptor (GR) complex used in the assay is described in U.S. Patent Application Publication No. US 2003/0017503, filed May 20, 2002, and incorporated herein by reference in its entirety. Preparation of the tetramethylrhodamine (TAMRA)-labeled dexamethasone probe was accomplished using a standard literature procedure (M. Pons et al., J. Steroid Biochem., 1985, 22, pp. 267-273).
The affinity of the probe for the steroid receptor was then determined in a titration experiment. The fluorescence polarization value of the probe in assay buffer was measured on an SLM-8100 fluorometer using the excitation and emission maximum values described above. Aliquots of expression vector lysate were added and fluorescence polarization was measured after each addition until no further change in polarization value was observed. Non-linear least squares regression analysis was used to calculate the dissociation constant of the probe from the polarization values obtained for lysate binding to the probe.
This assay uses fluorescence polarization (FP) to quantitate the ability of test compounds to compete with tetramethylrhodamine (TAMRA)-labeled dexamethasone for binding to a human glucocorticoid receptor (GR) complex prepared from an insect expression system. The assay buffer was: 10 mM TES, 50 mM KCl, 20 mM Na2MoO4.2H2O, 1.5 mM EDTA, 0.04% w/v CHAPS, 10% v/v glycerol, 1 mM dithiothreitol, pH 7.4. Test compounds were dissolved to 1 mM in neat DMSO and then further diluted to 10× assay concentration in assay buffer supplemented with 10% v/v DMSO. Test compounds were serially diluted at 10× assay concentrations in 10% DMSO-containing buffer in 96-well polypropylene plates. Binding reaction mixtures were prepared in 96-well black Dynex microtiter plates by sequential addition of the following assay components to each well: 15 μL of 10× test compound solution, 85 μL of GR-containing baculovirus lysate diluted 1:170 in assay buffer, and 50 μL of 15 nM TAMRA-labeled dexamethasone. Positive controls were reaction mixtures containing no test compound; negative controls (blanks) were reaction mixtures containing 0.7 μM to 2 μM dexamethasone. The binding reactions were incubated for 1 hour at room temperature and then read for fluorescence polarization in the LJL Analyst set to 550 nm excitation and 580 nm emission, with the Rhodamine 561 dichroic mirror installed. IC50 values were determined by iterative non-linear curve fitting of the FP signal data to a 4-parameter logistic equation.
In general terms: Polarisation of emitted light reports the rotation of a fluorescent probe.
Regarding `Cc1cc(C)c(S(=O)(=O)NC(COc2cc(C)ccc2Cl)C(F)(F)F)c(C)c1` (stereo not shown) [N-[1-(2-Chloro-5-methylphenoxymethyl)-2,2,2-trifluoroethyl]-2,4,6-trimethylbenzenesulfonamide], the 50% inhibitory concentration (IC50) was ≤ 100 nM.

For the compound `Cc1cc(C)cc(NCC(NS(=O)(=O)c2c(C)cc(C)cc2C)C(F)(F)F)c1` (stereo not shown) [N-{1-[(3,5-Dimethylphenylamnino)methyl]-2,2,2-trifluoroethyl}-2,4,6-trimethyl-benzenesulfonamide], the half-maximal inhibitory concentration (IC50) is ≤ 100 nM.

Consider `COc1ccc(NCC(NS(=O)(=O)c2c(C)cc(C)cc2C)C(F)(F)F)c(OC)c1` (stereo not shown) [N-{1-[(2,4-Dimethoxyphenylamino)methyl]-2,2,2-trifluoroethyl}-2,4,6-trimethylbenzenesulfonamide], for which the IC50 was ≤ 100 nM.

With `COc1cc(NCC(NS(=O)(=O)c2c(C)cc(C)cc2C)C(F)(F)F)cc(C(F)(F)F)c1` (stereo not shown) [2,4,6-Trimethyl-N-{2,2,2-trifluoro-1-[(3-methoxy-5-trifluoromethylphenylamino)methyl]ethyl}benzenesulfonamide], the half-inhibitory concentration (IC50) is ≤ 100 nM.

Take `Cc1cc(C)c(S(=O)(=O)NC(COc2cccc(Cl)c2)C(F)(F)F)c(C)c1` (stereo not shown) [N-[1-(3-Chlorophenoxymethyl)-2,2,2-trifluoroethyl]-2,4,6-trimethylbenzenesulfonamide]: the concentration for half-maximal inhibition (IC50) was ≤ 100 nM.

For `Cc1cc(C)c(S(=O)(=O)NC(COc2cc(F)ccc2Br)C(F)(F)F)c(C)c1` (stereo not shown) [N-[1-(2-Bromo-5-fluorophenoxymethyl)-2,2,2-trifluoroethyl]-2,4,6-trimethylbenzenesulfonamide], the IC50 was ≤ 100 nM.

As for `Cc1cc(C)c(S(=O)(=O)NC(COc2ccc(F)c(F)c2F)C(F)(F)F)c(C)c1` (stereo not shown) [2,4,6-Trimethyl-N-[2,2,2-trifluoro-1-(2,3,4-trifluorophenoxymethyl)ethyl]benzenesulfonamide], the IC50 was ≤ 100 nM.

Regarding `CCOC(=O)c1ccc(OCC(NS(=O)(=O)c2c(C)cc(C)cc2C)C(F)(F)F)c(OC)c1` (stereo not shown) [3-Methoxy-4-[3,3,3-trifluoro-2-(2,4,6-trimethylbenzenesulfonylamino)propoxy]benzoic acid ethyl ester], the IC50 is ≤ 100 nM.

Consider `Cc1cc(C)c(S(=O)(=O)NC(CNc2ccc(C#N)cc2)C(F)(F)F)c(C)c1` (stereo not shown) [N-{1-[(4-Cyanophenylamino)methyl]-2,2,2-trifluoroethyl}-2,4,6-trimethylbenzenesulfonamide], for which the concentration for half-maximal inhibition (IC50) is ≤ 100 nM.

`Cc1cc(C)c(S(=O)(=O)NC(COc2cccc(OC(F)(F)F)c2)C(F)(F)F)c(C)c1` (stereo not shown) [2,4,6-Trimethyl-N-[2,2,2-trifluoro-1-(3-trifluoromethoxyphenoxymethyl)ethyl]benzenesulfonamide]: the half-inhibitory concentration (IC50) is ≤ 100 nM.

Turning to `Cc1cc(C)c(S(=O)(=O)NC(CNc2ccccc2C#N)C(F)(F)F)c(C)c1` (stereo not shown) [N-{1-[(2-Cyanophenylamino)methyl]-2,2,2-trifluoroethyl}-2,4,6-trimethylbenzenesulfonamide], the concentration for half-maximal inhibition (IC50) is ≤ 100 nM.

Regarding `Cc1cc(C)c(S(=O)(=O)NC(CNc2cccc(Br)c2)C(F)(F)F)c(C)c1` (stereo not shown) [N-{1-[(3-Bromophenylamino)methyl]-2,2,2-trifluoroethyl}-2,4,6-trimethylbenzenesulfonamide], the IC50 is ≤ 100 nM.

In the case of `Cc1ccc(OCC(NS(=O)(=O)c2c(C)cc(C)cc2C)C(F)(F)F)c(C)c1` (stereo not shown) [N-[1-(2,4-Dimethylphenoxymethyl)-2,2,2-trifluoroethyl]-2,4,6-trimethylbenzenesulfonamide], the IC50 was ≤ 100 nM.

With `Cc1cc(C)c(S(=O)(=O)NC(COc2cccc(C(F)(F)F)c2)C(F)(F)F)c(C)c1` (stereo not shown) [2,4,6-Trimethyl-N-[2,2,2-trifluoro-1-(3-trifluoromethylphenoxymethyl)ethyl]benzenesulfonamide], the IC50 was ≤ 100 nM.

For the compound `CC[C@@](C)(CN(CCC#N)c1cccc2ccccc12)NS(=O)(=O)c1c(C)cc(C)cc1C` [N—((S)-1-{[(2-Cyanoethyl)naphthalen-1-ylamino]methyl}-1-methylpropyl)-2,4,6-trimethylbenzenesulfonamide], the concentration for half-maximal inhibition (IC50) was ≤ 100 nM.

As to `Cc1cc(C)c(S(=O)(=O)NC(CN(C)c2ccccc2)C(F)(F)F)c(C)c1` (stereo not shown) [2,4,6-Trimethyl-N-{2,2,2-trifluoro-1-[(methylphenylamino)methyl]ethyl}benzenesulfonamide], the IC50 is ≤ 100 nM.

With `Cc1cc(C)c(S(=O)(=O)NC(CSc2ccc(C(C)C)cc2)C(F)(F)F)c(C)c1` (stereo not shown) [2,4,6-Trimethyl-N-[2,2,2-trifluoro-1-(4-isopropylphenylsulfanylmethyl)ethyl]benzenesulfonamide], the half-maximal inhibitory concentration (IC50) is ≤ 100 nM.

`Cc1cc(C)c(S(=O)(=O)NC(COc2ccc3c(c2)CCC3)C(F)(F)F)c(C)c1` (stereo not shown) [2,4,6-Trimethyl-N-[2,2,2-trifluoro-1-(indan-5-yloxymethyl)ethyl]benzenesulfonamide]: the IC50 was ≤ 100 nM.

As for `COC(=O)c1ccccc1NCC(NS(=O)(=O)c1c(C)cc(C)cc1C)C(F)(F)F` (stereo not shown) [2-[3,3,3-Trifluoro-2-(2,4,6-trimethylbenzenesulfonylamino)propylamino]benzoic acid methyl ester], the IC50 was ≤ 100 nM.

As for `Cc1cc(C)cc(SCC(NS(=O)(=O)c2c(C)cc(C)cc2C)C(F)(F)F)c1` (stereo not shown) [N-[1-(3,5-Dimethylphenylsulfanylmethyl)-2,2,2-trifluoroethyl]-2,4,6-trimethylbenzenesulfonamide], the IC50 is ≤ 100 nM.

With `Cc1cc(C)c(S(=O)(=O)NC(COc2cc(Cl)ccc2C)C(F)(F)F)c(C)c1` (stereo not shown) [N-[1-(5-Chloro-2-methylphenoxymethyl)-2,2,2-trifluoroethyl]-2,4,6-trimethylbenzenesulfonamide], the IC50 was ≤ 100 nM.

As for `Cc1cc(C)c(S(=O)(=O)NC(CNc2ccc(C#N)c(Cl)c2)C(F)(F)F)c(C)c1` (stereo not shown) [N-{1-[(3-Chloro-4-cyanophenylamino)methyl]-2,2,2-trifluoroethyl}-2,4,6-trimethylbenzenesulfonamide], the IC50 was ≤ 100 nM.

On to `COC(=O)c1ccccc1SCC(NS(=O)(=O)c1c(C)cc(C)cc1C)C(F)(F)F` (stereo not shown) [2-[3,3,3-Trifluoro-2-(2,4,6-trimethylbenzenesulfonylamino)propylsulfanyl]benzoic acid methyl ester], for which the IC50 is ≤ 100 nM.

Turning to `Cc1cc(C)c(S(=O)(=O)NC(COc2ccc(C(F)(F)F)cc2)C(F)(F)F)c(C)c1` (stereo not shown) [2,4,6-Trimethyl-N-[2,2,2-trifluoro-1-(4-trifluoromethylphenoxymethyl)ethyl]benzenesulfonamide], the 50% inhibitory concentration (IC50) was ≤ 100 nM.

In the case of `Cc1cc(C)c(S(=O)(=O)NC(CSc2ccccc2OC(F)(F)F)C(F)(F)F)c(C)c1` (stereo not shown), the IC50 was ≤ 100 nM.

`CSc1cccc(NCC(NS(=O)(=O)c2c(C)cc(C)cc2C)C(F)(F)F)c1` (stereo not shown) [2,4,6-Trimethyl-N-{2,2,2-trifluoro-1-[(3-methylsulfanylphenylamino)methyl]ethyl}benzenesulfonamide]: the half-maximal inhibitory concentration (IC50) was ≤ 100 nM.

`Cc1cc(C)c(S(=O)(=O)NC(COc2cc(Cl)cc(Cl)c2)C(F)(F)F)c(C)c1` (stereo not shown) [N-[1-(3,5-Dichlorophenoxymethyl)-2,2,2-trifluoroethyl]-2,4,6-trimethylbenzenesulfonamide]: the IC50 is ≤ 100 nM.

On to `Cc1cc(C)c(S(=O)(=O)NC(COc2ccc(C)cc2Cl)C(F)(F)F)c(C)c1` (stereo not shown) [N-[1-(2-Chloro-4-methylphenoxymethyl)-2,2,2-trifluoroethyl]-2,4,6-trimethylbenzenesulfonamide], for which the IC50 was ≤ 100 nM.
